Entries after “also recorded” stand apart in the source; their conditions may differ. Bridge positions count the residues as written; N and C are the ends. Ends that are not written are not given here.
Key:
hKV10.1 = assay: Whole-cell patch-clamp, hKV10.1 in transiently transfected CHO cells; format: cell-based, human
Description: (§1) CHO and human embryonic kidney (HEK 293) cells were grown in DMEM-high glucose supplemented with 10% FBS, 2 mM L-glutamine, 100 U/mL penicillin-g, and 100 μg/mL streptomycin (Invitrogen) at 37 °C in a 5% CO2 and 95% air humidified atmosphere. Cells were passaged twice per week following a 5-min incubation in PBS containing 0.2 g/L EDTA (Invitrogen, Carlsbad, CA).
CHO cells (ATCC) were transiently transfected with plasmids encoding hKV1.1, hKV1.2, hKV10.1, hKCa3.1, hTRPA1, or hNaV1.7 using Lipofectamine 2000 (Invitrogen, Carlsbad, CA) following the manufacturer’s protocol, then cultured under standard conditions. The cells were co-transfected with a plasmid encoding green fluorescent protein (GFP) at a molar ratio of 10:1 except for hKV1.1, hKV1.2, and hKCa3.1 for which GFP-tagged ion channel vectors were used. Currents were recorded 24–36 h after transfection. […] HEK 293 cells stably expressing the hKv11.1 channel (hERG, hKCNH2 gene, a kind gift from H. Wulff, University of California, Davis, CA) and mKCa1.1 channel (BKCa, hKCNMA1, a kind gift from C. Beeton, Baylor College of Medicine, Houston, TX) were used. hTRPV1 channels were expressed in a stable manner in CHO cells. Transfected cells were washed twice with 2 mL of ECS (see below) and re-plated onto 35-mm polystyrene cell culture dishes (Cellstar, Greiner Bio-One). hKV1.3 currents were recorded from activated peripheral blood mononuclear cells (PBMCs, see below) 3–4 days after activation. Human veinous blood was obtained from anonymised healthy donors. […]
Conventional whole-cell patch-clamp electrophysiology was used to record ionic currents. […] Data were analysed using Prism 8 (GraphPad, CA, USA) and ClampFit 10.5 software (Molecular Devices Inc., Sunnyvale, CA). […] For hKCa3.1, hTRPA1 and hTRPV1, the reversal potential for K^+ was determined and only those currents were analysed for which the reversal potential fell into the range of the theoretical reversal potential ± 5 mV (− 86.5 ± 5 mV for KCa3.1, and 0 ± 5 mV for hTRPA1 and hTRPV1).

[1] = test system: hKV11.1 channel (hERG, hKCNH2 gene); assay: Whole-cell patch-clamp, hKV11.1 (hERG) stably expressed in HEK 293 cells; format: cell-based, human
Description: as §1
(§2) CHO cells (ATCC) were transiently transfected with plasmids encoding hKV1.1, hKV1.2, hKV10.1, hKCa3.1, hTRPA1, or hNaV1.7 using Lipofectamine 2000 (Invitrogen, Carlsbad, CA) following the manufacturer’s protocol, then cultured under standard conditions. The cells were co-transfected with a plasmid encoding green fluorescent protein (GFP) at a molar ratio of 10:1 except for hKV1.1, hKV1.2, and hKCa3.1 for which GFP-tagged ion channel vectors were used. Currents were recorded 24–36 h after transfection. […] Transfected cells were washed twice with 2 mL of ECS (see below) and re-plated onto 35-mm polystyrene cell culture dishes (Cellstar, Greiner Bio-One). hKV1.3 currents were recorded from activated peripheral blood mononuclear cells (PBMCs, see below) 3–4 days after activation. […]
(§3) Conventional whole-cell patch-clamp electrophysiology was used to record ionic currents. […] Data were analysed using Prism 8 (GraphPad, CA, USA) and ClampFit 10.5 software (Molecular Devices Inc., Sunnyvale, CA). […]

hTRPA1 = assay: Whole-cell patch-clamp, hTRPA1 in transiently transfected CHO cells; format: cell-based, human
Description: as §1, §2, §3

hTRPV1 = assay: Whole-cell patch-clamp, hTRPV1 stably expressed in CHO cells; format: cell-based, human
Description: as §1, §2, §3

hNaV1.7 = assay: Whole-cell patch-clamp, hNaV1.7 in transiently transfected CHO cells; format: cell-based, human
Description: as §1, §2, §3

Drosophila melanogaster = assay: Injection activity assay in Drosophila melanogaster; format: in vivo; conditions: for flies dead / flies paralysed: n = 8; for number of flies dead / number of flies paralysed: of 8 flies
Description: The activity of the recombinant SA8 peptide in Drosophila melanogaster was assessed using an injection activity assay. The mass of female D. melanogaster used for this experiment ranged from 0.8 to 1.1 mg. Eight D. melanogaster were used as an injection control group and administered 50 nL of water. Five doses of SA8 (0.00005, 0.0005, 0.005, 0.05 and 0.5 µg per fly; 50 nL) were each administered to eight D. melanogaster (n total = 40), with observations of paralysis and mortality made at 2 and 24 h post-injection (Additional file 14: File S6). Dose–response data were analysed as described previously.

## GYGKGRPGCYNHYDESICGGVIKDEHCKAGRGSRMGKFALKNCQFQCGLC (disulfide 9-47, 18-50, 27-43) [SA8]
hKV10.1; Kv10.1, 1000 nM SA8, mean, n = 4, SEM 0.00577385
  RCF_mean (remaining current fraction, I/I0): 0.9796
hKV10.1; hKV10.1, CHO cells, 1 µM SA8
  effect on current, in words: no effect; also recorded: did not inhibit
[1]; Kv11.1, 100 nM SA8, mean, n = 5, SEM 0.0157239
  RCF_mean (remaining current fraction, I/I0): 1.029
[1]; hKV11.1 (hERG), HEK 293, 100 nM SA8
  effect on current, in words: no effect; also recorded: did not inhibit
hTRPA1; TRPA1, 100 nM SA8, mean, n = 5, SEM 0.0123957
  RCF_mean (remaining current fraction, I/I0): 0.9628
hTRPA1; hTRPA1, CHO cells, activated by 100 µM AITC, 100 nM SA8
  effect on current, in words: no effect; also recorded: did not inhibit
hTRPV1; TRPV1, 100 nM SA8, mean, n = 5, SEM 0.0111172
  RCF_mean (remaining current fraction, I/I0): 0.9606
hTRPV1; hTRPV1, CHO cells, activated by 1 µM capsaicin, 100 nM SA8
  effect on current, in words: no effect; also recorded: did not inhibit
hNaV1.7; Nav1.7, 1000 nM SA8, mean, n = 5, SEM 0.022988
  RCF_mean (remaining current fraction, I/I0): 1.02
hNaV1.7; hNaV1.7, CHO cells, 1 µM SA8
  effect on current, in words: no effect; also recorded: did not inhibit
Drosophila melanogaster; 5e-5 µg/fly, 2 h
  flies dead: 0.0%
  flies paralysed: 0.0%
  number of flies dead: 0
  number of flies paralysed: 0
Drosophila melanogaster; 5e-5 µg/fly, 24 h
  flies dead: 0.0%
  flies paralysed: 0.0%
  number of flies dead: 0
  number of flies paralysed: 0
Drosophila melanogaster; 0.0005 µg/fly, 2 h
  flies dead: 0.0%
  flies paralysed: 0.0%
  number of flies dead: 0
  number of flies paralysed: 0
Drosophila melanogaster; 0.0005 µg/fly, 24 h
  flies dead: 0.0%
  flies paralysed: 0.0%
  number of flies dead: 0
  number of flies paralysed: 0
Drosophila melanogaster; 0.005 µg/fly, 2 h
  flies dead: 0.0%
  flies paralysed: 0.0%
  number of flies dead: 0
  number of flies paralysed: 0
Drosophila melanogaster; 0.005 µg/fly, 24 h
  flies dead: 0.0%
  flies paralysed: 0.0%
  number of flies dead: 0
  number of flies paralysed: 0
Drosophila melanogaster; 0.05 µg/fly, 2 h
  flies dead: 0.0%
  flies paralysed: 0.0%
  number of flies dead: 0
  number of flies paralysed: 0
Drosophila melanogaster; 0.05 µg/fly, 24 h
  flies dead: 0.0%
  flies paralysed: 0.0%
  number of flies dead: 0
  number of flies paralysed: 0
Drosophila melanogaster; 0.5 µg per fly, injected
  paralysis or death within 24 h, in words: did not result in paralysis or death
Drosophila melanogaster; 0.5 µg/fly, 2 h
  flies dead: 0.0%
  flies paralysed: 0.0%
  number of flies dead: 0
  number of flies paralysed: 0
Drosophila melanogaster; 0.5 µg/fly, 24 h
  flies dead: 0.0%
  flies paralysed: 0.0%
  number of flies dead: 0
  number of flies paralysed: 0

— article PMC10210398, “Genomic, functional and structural analyses elucidate evolutionary innovation within the sea anemone 8 toxin family” (BMC Biology, 2023)
